Data reported in article PMC9445877, “Blockade of TMPRSS2-mediated priming of SARS-CoV-2 by lactoferricin” (Frontiers in Immunology, 2022).
Entries after “also recorded” stand apart in the source; their conditions may differ. Where two headings read alike, the source gives them in different places. Peptide text beside a SMILES is read from it.

Assays:
TMPRSS2 = target: T1, TMPRSS2 (Homo sapiens, UniProt O15393); assay: In vitro proteolysis assay, TMPRSS2, fluorogenic substrate Boc-Gln-Ala-Arg-AMC; type: biochemical; settings: 37°C, Boc-Gln-Ala-Arg-AMC; for inhibition of proteolytic activity of TMPRSS2 (in words): Tris-HCl buffer
T1 construct: TMPRSS2 (25 nM; recombinant protein produced in mammalian cells; #MBS1193731, MyBioSource, San Diego, CA); purchased MyBioSource, San Diego, CA #MBS1193731; host or cells: mammalian cells
Description: (§1) Figure 1 Effect of LF and the LF-derived peptides pLF1-pLF3 on the activity of serine proteases. Proteolytic activities of purified TMPRSS2 (A), plasmin (B), elastase (C), and trypsin (D) were measured with or without peptides pLF1, pLF2, pLF3, LF or the control peptide pCTR at 37°C in Tris-HCl buffer using the fluorogenic substrate Boc-Gln-Ala-Arg-AMC. The reaction was monitored using an ELISA reader for the indicated time intervals.
(§2) The proteolytic activities of plasmin (10 nM; from human plasma; #10602361001, Roche Diagnostics GmbH, Mannheim, Germany), trypsin (10 nM; from bovine pancreas; #T1005, Sigma-Aldrich, St. Louis, MO), elastase (20 nM; from porcine pancreas; #E1250, Sigma-Aldrich) and TMPRSS2 (25 nM; recombinant protein produced in mammalian cells; #MBS1193731, MyBioSource, San Diego, CA) were measured in a Nunc black fluorescence-based cell assay plate (Sigma-Aldrich) in Tris-HCl buffer (20 mM, pH 8.0, 150 mM NaCl). The proteases were incubated with or without inhibitory and control compounds at 37°C for 30 min, and then the fluorogenic substrate (Boc-Gln-Ala-Arg-AMC; 25 µM; #BML-P237, ENZO Life Sciences, Lörrach, Germany) was added. The reaction was measured using an ELISA plate reader (Synergy H1 BioTek microplate reader, Winooski, Vermont, U.S., or TECAN GENios, GMI, USA) under the excitation wavelength of 380 nm and the emission wavelength of 460 nm at the indicated time points.

plasmin = target: T2, plasmin (Homo sapiens, UniProt P00747); assay: In vitro proteolysis assay, plasmin; type: biochemical; settings: 37°C; for inhibition of proteolytic activity of plasmin (in words): plasmin 10 nM, Tris-HCl buffer, Boc-Gln-Ala-Arg-AMC
T2 construct: purchased Roche Diagnostics GmbH, Mannheim, Germany #10602361001; host or cells: human plasma
Description: as §1, §2
Optionally ( Figure 1B , inset), purified active plasmin (10 mU/mL) was coated in PBS directly on a 96-well Falcon transparent plate for 2 h at 37°C. The wells were then blocked with 1% BSA, washed, and then incubated in PBS at 37°C with the chromogenic plasmin substrate S-2251 (0.8 mM, D-Val-Leu-Lys-pNA, CoaChrom Diagnostica). In this case, the absorbance change at 405 nm was monitored at different time points by using an ELISA plate reader (SpectraMax M5, Molecular Devices).

elastase = assay: In vitro proteolysis assay, elastase; type: biochemical, porcine; settings: elastase 20 nM; 37°C, Tris-HCl buffer, Boc-Gln-Ala-Arg-AMC
Description: as §1
as §2, with “The proteases were incubated with or without inhibitory and control compounds at 37°C for 30 min, and then the fluorogenic substrate (Boc-Gln-Ala-Arg-AMC; 25 µM; #BML-P237, ENZO Life Sciences, Lörrach, Germany) was added.” left out

[1] = tested on: SARS-CoV-2 S protein cleavage by TMPRSS2; assay: SARS-CoV-2 S protein digestion assay with TMPRSS2 (immunoblot); type: biochemical; settings: S protein 1 µg, TMPRSS2 25 nM, 120 min, 37°C, Tris-HCl 20 mM pH 7.5, 150 mM NaCl, n = 4
[2] = tested on: SARS-CoV-2 infection, Vero cells; type: cell-based, SARS-CoV-2 (African green monkey cells); settings: n = 3
Vero cells = assay: Cytotoxicity assay in Vero cells (EZ4U); type: cell-based, African green monkey; settings: 48 h, without virus, 20 and 40 µg/mL, DMEM/2% FCS, 3 experiments, 80% viability cut-off
Description: Vero cells were seeded into 96-well flat-bottom plates (1×10^4 cells, 80 µl/well) in DMEM medium supplemented with 10% FCS, antibiotics, and non-essential amino acids. On the day of the assay, the medium was exchanged for the reduced serum supplemented DMEM (DMEM/2% FCS) with the peptides or a vehicle only at the designated concentration (100 µl/well). As a positive control, 30% DMSO in DMEM/2% FCS was used. Negative control cells were incubated in DMEM/2% FCS only. Two days (48 h) later, cell viability was assessed as we did previously ([52]) using the EZ4U cell proliferation and cytotoxicity assay substrate (Biomedica Immunoassays, Vienna, Austria).

SARS-CoV-2 = type: cell-based; settings: for SARS-CoV-2 infection of permissive cells (in words): summary statement

T2 sequence (P00747 581-810 limits assumed): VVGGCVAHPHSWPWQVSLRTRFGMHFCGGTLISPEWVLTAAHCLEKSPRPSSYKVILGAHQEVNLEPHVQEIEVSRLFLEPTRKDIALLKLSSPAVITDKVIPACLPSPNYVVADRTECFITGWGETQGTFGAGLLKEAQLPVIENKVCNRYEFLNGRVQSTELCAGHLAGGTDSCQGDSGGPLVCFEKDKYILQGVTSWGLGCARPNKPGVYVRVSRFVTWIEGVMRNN
T2 sequence (P00747 97-580 limits assumed): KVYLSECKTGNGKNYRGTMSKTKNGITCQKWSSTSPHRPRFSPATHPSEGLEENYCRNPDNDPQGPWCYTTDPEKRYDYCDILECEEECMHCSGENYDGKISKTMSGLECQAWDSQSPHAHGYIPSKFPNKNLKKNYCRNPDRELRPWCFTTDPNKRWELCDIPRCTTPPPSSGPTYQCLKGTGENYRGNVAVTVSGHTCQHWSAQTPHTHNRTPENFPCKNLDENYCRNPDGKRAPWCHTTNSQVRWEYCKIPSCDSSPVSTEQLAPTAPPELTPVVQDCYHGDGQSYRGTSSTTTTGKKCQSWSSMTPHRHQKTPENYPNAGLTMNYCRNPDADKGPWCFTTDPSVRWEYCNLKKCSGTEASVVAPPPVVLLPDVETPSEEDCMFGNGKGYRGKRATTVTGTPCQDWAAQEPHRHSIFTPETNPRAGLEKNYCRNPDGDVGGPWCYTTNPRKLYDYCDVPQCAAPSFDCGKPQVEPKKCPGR
T1 sequence (O15393 256-492 limits assumed): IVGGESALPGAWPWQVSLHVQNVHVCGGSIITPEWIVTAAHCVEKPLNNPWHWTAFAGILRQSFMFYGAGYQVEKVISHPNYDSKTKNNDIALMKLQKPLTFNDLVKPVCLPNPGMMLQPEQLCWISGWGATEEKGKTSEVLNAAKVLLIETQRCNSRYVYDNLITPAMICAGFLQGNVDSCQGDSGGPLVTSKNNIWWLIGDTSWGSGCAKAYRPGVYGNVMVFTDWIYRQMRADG
T1 sequence (O15393 106-255 limits assumed): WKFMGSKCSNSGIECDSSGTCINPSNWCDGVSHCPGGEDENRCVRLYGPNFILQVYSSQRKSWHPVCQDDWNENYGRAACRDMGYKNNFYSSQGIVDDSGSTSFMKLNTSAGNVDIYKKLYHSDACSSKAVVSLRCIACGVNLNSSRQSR

With “NFRTKSCPLELAKELKLCS [pCTR, negative control peptide, a scrambled variant of pLF3, reference compound]” as the compound, how does the “inhibition of proteolytic activity of TMPRSS2 (in words)” value (shortened to “inhibition … of TMPRSS2 (in words)”) (TMPRSS2) read?
The value was “neither full-length LF nor pCTR inhibited; also recorded: neither full-length LF nor other tested peptides derived from LF, nor the control peptide pCTR, significantly reduced”.

What about the “inhibition of proteolytic activity of plasmin (in words)” value (plasmin) of the same compound?
The value was “neither full-length LF nor a control peptide (pCTR), was able to inhibit; also recorded: neither full-length LF nor other tested peptides derived from LF, nor the control peptide pCTR, significantly reduced”.

What about the “inhibition of proteolytic activity of elastase (in words)” value (elastase) of the same compound?
Its value is “neither full-length LF nor other tested peptides derived from LF, nor the control peptide pCTR, significantly reduced”.

What about the “cleavage of SARS-CoV-2 S protein by TMPRSS2 (in words)” value [1] of the same compound?
The value was “no such effect was seen”.

What about the “inhibition of SARS-CoV-2 infection, Vero cells (in words)” value ([2]; pre-incubation 40-60 min) of the same compound?
The value was “did not show any inhibitory potential”.

Which “cytotoxicity, Vero cells (in words)” value (Vero cells) does the source give for `C[S+](C)[O-]` [30% DMSO] here?
The value was “significantly (p***<0.0005) affected viability of Vero cells”.

Which “maximum inhibition of TMPRSS2 (plateau)” value (TMPRSS2; at 40 - 80 µg/mL) does the source give for `CC(C)[C@H](NC(=O)[C@H](C)NC(=O)[C@H](CS)NC(=O)[C@H](Cc1c[nH]c2ccccc12)NC(=O)[C@H](CCC(N)=O)NC(=O)[C@@H](NC(=O)[C@H](CO)NC(=O)[C@H](CCCNC(=N)N)NC(=O)[C@H](CCCNC(=N)N)NC(=O)[C@H](CCCNC(=N)N)NC(=O)CN)C(C)C)C(=O)N[C@@H](CO)C(=O)N[C@@H](CCC(N)=O)C(=O)N1CCC[C@H]1C(=O)N[C@@H](CCC(=O)O)C(=O)N[C@@H](C)C(=O)N[C@H](C(=O)N[C@@H](CCCCN)C(=O)N[C@@H](CS)C(=O)O)[C@@H](C)O` [pLF1] (H-GRRRSVQWCAVSQPEATKC-OH) here?
The value was ~ 40%.

And the IC50 (plasmin; Figure 1B inset: plasmin 10 mU/mL coated in PBS, chromogenic substrate S-2251 0.8 mM, PBS, absorbance 405 nm, relative IC50, 4PL fit, experiments at least three times, read-out: half-maximum inhibitory concentration (IC50), plasmin (converted))?
Its IC50 is 3.19 µM.

Which “inhibition … of TMPRSS2 (in words)” value (TMPRSS2) does the source give for aprotinin [reference compound] here?
Its value is “blunted the proteolytic activity of both proteases”.

What about the “inhibition of proteolytic activity of plasmin (in words)” value (plasmin) of the same compound?
The value was “blunted the proteolytic activity of both proteases”.

With “GRRRRSVQWCAVSQPEATKCFQWQRNMRKVRGPPVSCIKRDSPIQCIQA [LFC, natural peptide of 49 amino acids from the N-terminus of human LF, produced by pepsin cleavage]” as the compound, how does the “inhibition … of TMPRSS2 (in words)” value (TMPRSS2) read?
The value was “inhibitory effect on TMPRSS2 comparable to that of pLF1”.

And the “inhibition … of TMPRSS2 (in words)” value (TMPRSS2; listed as lactoferricin)?
The value was “significantly inhibited”.

What about the “infection rate of replication-competent SARS-CoV-2 in Vero cells (in words)” value ([2]; 80 µg/mL, pre-incubation approx. 1 h) of the same compound?
The value was “reduced the infection rate”.

What about the “inhibition of SARS-CoV-2 infection in Vero and Calu-3 cells” value (SARS-CoV-2; Vero and Calu-3 cells, summary statement in Discussion) of the same compound?
Its value is 40-50%.

What about the “SARS-CoV-2 infection of permissive cells (in words)” value (SARS-CoV-2) of the same compound?
The value was “inhibits cell entry of SARS-CoV-2 through blocking TMPRSS2-mediated virus priming”.

And the “SARS-CoV-2 infection of permissive cells (in words)” value (SARS-CoV-2; listed as lactoferricin)?
Its value is “significantly inhibited”.
